51 compounds from patent US20040121316A1 (priority 2002, published 2004) can be followed below.

In one assay the test system is wild-type HIV-1 strain IIIB. Description: microbe, parasite or virus in culture. The assay is classed as cell-based. More on the design: scale not given here.
Details: not given
As for `CCOP(=O)(COc1ccc(C[C@H](NC(=O)O[C@H]2CO[C@H]3OCC[C@H]32)[C@H](O)CN(CC(C)C)S(=O)(=O)c2ccc([N+](=O)[O-])cc2)cc1)OCC`, the “EC50 (nM)” value is on record as “+ +”.
Take `CCOP(=O)(CCNCc1ccc(CC(NC(=O)OC2COC3OCCC23)C(O)CN(CC(C)C)S(=O)(=O)c2ccc(OC)cc2)cc1)OCC` (stereo not drawn) [drawing 619 R1=Et R2=Et]: the EC50 entry is reported as “+ + +”.

The same assay, now with this note: Human immunodeficiency virus 1, IIIB.
The compound `CCOP(=O)(COc1ccc2c(c1)CN(CC(NC(=O)OC1COC3OCCC13)C(O)CN(CC(C)C)S(=O)(=O)c1ccc(OC)cc1)C2)OCC` (stereo not drawn) returned an EC50 of more than 5000 nM.
In the case of `COc1ccc(S(=O)(=O)N(CC2CCNCC2)CC(O)C(Cc2ccc(O)cc2)NC(=O)OC2COC3OCCC23)cc1` (stereo not drawn), the EC50 was more than 5000 nM.
The same measure, in the same setting: the same measure for `COc1ccc(S(=O)(=O)N(CC2CCN(C=O)CC2)CC(O)C(Cc2ccc(OCP(=O)(O)O)cc2)NC(=O)OC2COC3OCCC23)cc1` (stereo not drawn): more than 5000 nM; for `CCOP(=O)(COc1ccc(CC(NC(=O)OC2COC3OCCC23)C(O)CN(CC2CCN(C=O)CC2)S(=O)(=O)c2ccc(OC)cc2)cc1)OCC` (stereo not drawn): more than 5000 nM; for `CCOP(=O)(COc1ccc(CC(NC(=O)OC2COC3OCCC23)C(O)CN(CC2CCN(C)CC2)S(=O)(=O)c2ccc(OC)cc2)cc1)OCC` (stereo not drawn): more than 5000 nM.
The same measure, in the same setting: the value for `CC(C)CN(CC(O)C(Cc1ccc(OCP(=O)(O)O)cc1)NC(=O)OC1COC2OCCC12)S(=O)(=O)c1ccccc1` (stereo not drawn) was more than 5000 nM; that for `CC(C)CN(CC(O)C(Cc1ccc(OCP(=O)(O)O)cc1)NC(=O)OC1COC2OCCC12)S(=O)(=O)c1ccc(F)cc1` (stereo not drawn) was 500 to 5000 nM; that for `CC(C)CN(CC(O)C(Cc1ccc(OCP(=O)(O)O)cc1)NC(=O)OC1COC2OCCC12)S(=O)(=O)c1ccc(C(F)(F)F)cc1` (stereo not drawn) was 500 to 5000 nM.
Still for that read-out and setting: the same measure for `CC(C)CN(CC(O)C(Cc1ccc(OCP(=O)(O)O)cc1)NC(=O)OC1COC2OCCC12)S(=O)(=O)c1ccc(OC(F)(F)F)cc1` (stereo not drawn): 500 to 5000 nM; for `CC(C)CN(CC(O)C(Cc1ccc(OCP(=O)(O)O)cc1)NC(=O)OC1COC2OCCC12)S(=O)(=O)N1CCN(C)CC1` (stereo not drawn): more than 5000 nM; for `COc1ccc(S(=O)(=O)N(CC(C)C)CC(O)C(Cc2ccccc2)NC(=O)OC2COC3OCCC23)cc1OCP(=O)(OCc1ccccc1)OCc1ccccc1` (stereo not drawn): 500 to 5000 nM.
Compound `CC(C)CN(C[C@@H](O)[C@H](Cc1ccccc1)NC(=O)O[C@H]1CO[C@H]2OCC[C@H]21)S(=O)(=O)c1ccc(N)cc1` [TMC114, reference compound] registered a half-maximal effective concentration (EC50) of less than 50 nM.
The same measure, in the same setting: the same measure for `COc1ccc(S(=O)(=O)N(CC(C)C)CC(O)C(Cc2ccc(OCP(=O)(OCC(F)(F)F)OCC(F)(F)F)cc2)NC(=O)OC2COC3OCCC23)cc1` (stereo not drawn) [drawing 608 R1=OCH2CF3 R2=OCH2CF3]: more than 5000 nM; for `CCOP(=O)(COc1ccc(CC(NC(=O)OC2COC3OCCC23)C(O)CN(CC(C)C)S(=O)(=O)c2ccc(OC)cc2)cc1)OCC` (stereo not drawn) [drawing 608 R1=OEt R2=OEt]: less than 50 nM; for `COc1ccc(S(=O)(=O)N(CC(C)C)CC(O)C(Cc2ccc(OCP(=O)(OC)OC)cc2)NC(=O)OC2COC3OCCC23)cc1` (stereo not drawn) [drawing 608 R1=OMe R2=OMe]: less than 50 nM.
The same measure, in the same setting: the same measure for `COc1ccc(S(=O)(=O)N(CC(C)C)CC(O)C(Cc2ccc(OCP(=O)(OC(C)C)OC(C)C)cc2)NC(=O)OC2COC3OCCC23)cc1` (stereo not drawn) [drawing 608 R1=OiPr R2=OiPr]: less than 50 nM; for `CCOP(=O)(COc1ccc(CC(NC(=O)OC2COC3OCCC23)C(O)CN(CC(C)C)S(=O)(=O)c2ccc(O)cc2)cc1)OCC` (stereo not drawn) [drawing 609 R1=Et R2=Et]: less than 50 nM.
The same measure, in the same setting: the value for `CC(C)CN(CC(O)C(Cc1ccc(OCP(=O)(O)O)cc1)NC(=O)OC1COC2OCCC12)S(=O)(=O)c1ccc(O)cc1` (stereo not drawn) [drawing 609 R1=OH R2=OH] was 500 to 5000 nM; that for `CCCCOC(=O)C(C)NP(=O)(COc1ccc(CC(NC(=O)OC2COC3OCCC23)C(O)CN(CC(C)C)S(=O)(=O)c2ccc(OC)cc2)cc1)NC(C)C(=O)OCCCC` (stereo not drawn) [drawing 612 R1=Ala-Bu R2=Ala-Bu] was less than 50 nM; that for `CCCCOC(=O)CNP(=O)(COc1ccc(CC(NC(=O)OC2COC3OCCC23)C(O)CN(CC(C)C)S(=O)(=O)c2ccc(OC)cc2)cc1)NCC(=O)OCCCC` (stereo not drawn) [drawing 612 R1=Gly-Bu R2=Gly-Bu] was less than 50 nM.
The compound `CCOC(=O)CNP(=O)(COc1ccc(CC(NC(=O)OC2COC3OCCC23)C(O)CN(CC(C)C)S(=O)(=O)c2ccc(OC)cc2)cc1)NCC(=O)OCC` (stereo not drawn) [drawing 612 R1=Gly-Et R2=Gly-Et] had a concentration for a half-maximal effect (EC50) of 50 to 500 nM.
Same read-out and setting: the value for `CCOC(=O)C(CC(C)C)NP(=O)(COc1ccc(CC(NC(=O)OC2COC3OCCC23)C(O)CN(CC(C)C)S(=O)(=O)c2ccc(OC)cc2)cc1)NC(CC(C)C)C(=O)OCC` (stereo not drawn) [drawing 612 R1=Leu-Et R2=Leu-Et] was less than 50 nM; that for `COc1ccc(S(=O)(=O)N(CC(C)C)CC(O)C(Cc2ccc(OCP(=O)(O)NC(C)C(=O)O)cc2)NC(=O)OC2COC3OCCC23)cc1` (stereo not drawn) [drawing 614 R1=OH R2=Ala-OH] was more than 5000 nM.
For `COc1ccc(S(=O)(=O)N(CC(C)C)CC(O)C(Cc2ccc(CNCCP(=O)(O)O)cc2)NC(=O)OC2COC3OCCC23)cc1` (stereo not drawn) [drawing 619 R1=H R2=H], the EC50 was more than 5000 nM.

Staying with this assay, now noted: Human immunodeficiency virus 1, IIIB, MT2, 120 h, read-out: Anti-HIV-1 Cell Culture Activity EC50.
On to `CCOC(=O)CNP(=O)(COc1ccc(CC(NC(=O)OC2COC3OCCC23)C(O)CN(CC(C)C)S(=O)(=O)c2ccc(OC)cc2)cc1)NCC(=O)OCC` (stereo not drawn) [Compound 16a], for which the EC50 worked out at 330 ± 230 nM.
Still for that read-out and setting: the value for `CCCCOC(=O)C(CC)NP(=O)(COc1ccc(CC(NC(=O)OC2COC3OCCC23)C(O)CN(CC(C)C)S(=O)(=O)c2ccc(OC)cc2)cc1)NC(CC)C(=O)OCCCC` (stereo not drawn) [Example 16f] was 4.8 ± 1.8 nM; that for `CCCCOC(=O)C(CC(C)C)NP(=O)(COc1ccc(CC(NC(=O)OC2COC3OCCC23)C(O)CN(CC(C)C)S(=O)(=O)c2ccc(OC)cc2)cc1)NC(CC(C)C)C(=O)OCCCC` (stereo not drawn) [Example 16h] was 120 ± 42 nM.

The assay is the same for the next values; noted with them: read-out: EC50.
In the case of `CCOC(=O)C(CC)NP(=O)(COc1ccc(CC(NC(=O)OC2COC3OCCC23)C(O)CN(CC(C)C)S(=O)(=O)c2ccc(OC)cc2)cc1)Oc1ccccc1` (stereo not drawn) [Example 16576], the EC50 was 12.6 ± 4.8 nM.
The same measure, in the same setting: the value for `COc1ccc(S(=O)(=O)N(CC(C)C)C[C@@H](O)[C@H](Cc2ccc(OCP(=O)(O)O)cc2)NC(=O)O[C@H]2CO[C@H]3OCC[C@H]32)cc1` [GS8373] was 4800 nM.
Same read-out and setting: the value for `CC(C)CN(C[C@@H](O)[C@H](Cc1ccc([N+](=O)[O-])cc1)NC(=O)O[C@H]1CO[C@H]2OCC[C@H]21)S(=O)(=O)c1ccc(OCP(=O)(Oc2ccccc2)Oc2ccccc2)cc1` [NO2, phenol] was less than 50 nM; that for `CC(C)CN(CC(O)C(Cc1ccc(OCCN(C)C)cc1)NC(=O)OC1COC2OCCC12)S(=O)(=O)c1ccc(OCP(=O)(OCc2ccccc2)OCc2ccccc2)cc1` (stereo not drawn) [OC2H4-NMe2, OBn] was 50 to 500 nM; that for `CC(C)CN(CC(O)C(Cc1ccc(OCCN(C)C)cc1)NC(=O)OC1COC2OCCC12)S(=O)(=O)c1ccc(OCP(=O)(O)O)cc1` (stereo not drawn) [OC2H4NMe2, OH] was 500 to 5000 nM.
Take `CC(C)CN(CC(O)C(Cc1ccc(O)cc1)NC(=O)OC1COC2OCCC12)S(=O)(=O)c1ccc(OCP(=O)(OCc2ccccc2)OCc2ccccc2)cc1` (stereo not drawn) [OH, OBn]: the EC50 lay within 50 to 500 nM.
Same read-out and setting: the same measure for `CC(C)CN(CC(O)C(Cc1ccc(O)cc1)NC(=O)OC1COC2OCCC12)S(=O)(=O)c1ccc(OCP(=O)(O)O)cc1` (stereo not drawn) [OH, OH]: more than 5000 nM; for `COc1ccc(S(=O)(=O)N(CC(C)C)C[C@@H](OP(=O)(O)O)[C@H](Cc2ccccc2)NC(=O)O[C@H]2CO[C@H]3OCC[C@H]32)cc1` [Phosphate prodrug of 94-003]: less than 50 nM.
Same read-out and setting: the value for `CC(C)CN(C[C@@H](OP(=O)(O)O)[C@H](Cc1ccccc1)NC(=O)O[C@H]1CCOC1)S(=O)(=O)c1ccc(N)cc1` [Phosphate prodrug of ampenavir] was 50 to 500 nM.

The test system of another assay is mutant HIV-1 I84V/L90M. The assay is described as follows: Resistance Evaluation, I84V/L90M fold change. The note with it: EC50 of mutant I84V/L90M relative to wild type; class symbols. The class given is cell-based.
For the compound `CCOP(=O)(CN1CC=C(CC(NC(=O)OC2COC3OCCC23)C(O)CN(CC(C)C)S(=O)(=O)c2ccc(OC)cc2)CC1)OCC` (stereo not drawn), the I84V/L90M fold change result is listed as “+ (>3 to ≦10)”.
The same measure, in the same setting: the value for `CCOP(=O)(CCC1=CCN(CC(NC(=O)OC2COC3OCCC23)C(O)CN(CC(C)C)S(=O)(=O)c2ccc(OC)cc2)CC1)OCC` (stereo not drawn) was “+ (>3 to ≦10)”; that for `CCOP(=O)(Cc1ccc(NCC(NC(=O)OC2COC3OCCC23)C(O)CN(CC(C)C)S(=O)(=O)c2ccc(OC)cc2)cc1)OCC` (stereo not drawn) was “+ (>3 to ≦10)”.
The same measure, in the same setting: the value for `CCOP(=O)(Cc1ccc(N(C)CC(NC(=O)OC2COC3OCCC23)C(O)CN(CC(C)C)S(=O)(=O)c2ccc(OC)cc2)cc1)OCC` (stereo not drawn) was “+ (>3 to ≦10)”.
Regarding `CCOP(=O)(Cc1ccc(CN(C)CC(NC(=O)OC2COC3OCCC23)C(O)CN(CC(C)C)S(=O)(=O)c2ccc(OC)cc2)cc1)OCC` (stereo not drawn), the I84V/L90M fold change result is reported as “− (≦3)”.
The same measure, in the same setting: the same measure for `CCOP(=O)(Cc1ccc2c(c1)CCN(CC(NC(=O)OC1COC3OCCC13)C(O)CN(CC(C)C)S(=O)(=O)c1ccc(OC)cc1)C2)OCC` (stereo not drawn): “+ (>3 to ≦10)”; for `CCOP(=O)(CNc1ccc(CC(NC(=O)OC2COC3OCCC23)C(O)CN(CC(C)C)S(=O)(=O)c2ccc(OC)cc2)cc1)OCC` (stereo not drawn): “− (≦3)”; for `COc1ccc(S(=O)(=O)N(CC(C)C)CC(O)C(Cc2ccc(NCP(=O)(OCc3ccccc3)OCc3ccccc3)cc2)NC(=O)OC2COC3OCCC23)cc1` (stereo not drawn): “− (≦3)”.

Staying with this assay, now noted: mutant I84V/L90M vs wild type.
As to `COc1ccc(S(=O)(=O)N(CC(C)C)CC(O)C(Cc2ccc(C)cc2)NC(=O)OC2COC3OCCC23)cc1` (stereo not drawn), the I84V/L90M fold change entry is on record as “+ (>3 to ≦10)”.
Still for that read-out and setting: the same measure for `COc1ccc(S(=O)(=O)N(CC(C)C)CC(O)C(Cc2ccc(OCc3ccccc3)cc2)NC(=O)OC2COC3OCCC23)cc1` (stereo not drawn): “− (≦3)”; for `COc1ccc(S(=O)(=O)N(CCN2CCOCC2)CC(O)C(Cc2ccc(OCP(=O)(OCc3ccccc3)OCc3ccccc3)cc2)NC(=O)OC2COC3OCCC23)cc1` (stereo not drawn): “+ (>3 to ≦10)”.
The same measure, in the same setting: the same measure for `Cc1ccc(C(=O)NC(Cc2ccc(OCP(=O)(OCc3ccccc3)OCc3ccccc3)cc2)C(O)CN(CC(C)C)S(=O)(=O)c2ccc(N)cc2)cc1O` (stereo not drawn): “+ (>3 to ≦10)”; for `CCOP(=O)(COc1ccc(CC(NC(=O)OC2COC3OCCC23)C(O)CN(CC(C)C)S(=O)(=O)c2ccc([N+](=O)[O-])cc2)cc1)OCC` (stereo not drawn): “− (≦3)”.

What is called EC50 is the concentration needed to bring the measured effect to its halfway point.
